1 compound from PMC9959589, “Use of a Longer Aglycon Moiety Bearing Sialyl α(2→3) Lactoside on the Glycopolymer for Lectin Evaluation” (Polymers, 2023) can be followed below.

The assay deals with T1, Wheat germ agglutinin (WGA).
T1 construct: gene WGA1; commercial native lectin from wheat germ (J-Oil Mills)
As to the kind of experiment: intrinsic tryptophan fluorescence titration, Hill plot. It is filed as binding, Triticum aestivum. Particulars: 0.65 μM WGA, 50 mM Tris-HCl, 1.25 M NaCl, 25 mM CaCl2, pH 7.5, 4 °C; excitation 295 nm, emission 348 nm (buffer as given for 10b, same procedure); read-out: K a / (×10^5 M^-1) (converted). The source says:
intrinsic tryptophan fluorescence titration, Hill plot on Wheat germ agglutinin (WGA)

Each structure is given as a SMILES string.

As for `C=CC(=O)NCCOCCOCCOCCOCCOCCOCCOCCOCCO[C@@H]1O[C@H](CO)[C@@H](O[C@@H]2O[C@H](CO)[C@H](O)[C@H](O[C@]3(C(=O)O)C[C@H](O)[C@@H](NC(C)=O)[C@H]([C@H](O)[C@H](O)CO)O3)[C@H]2O)[C@H](O)[C@H]1O` [compound 9, 28-Oxo-3,6,9,12,15,18,21,24-octaoxa-27-azatriacont-29-en-1-yl (5-Acetamido-3,5-dideoxy-D̿ -glycero-α-D̿ -galacto-2-nonulopyranosyl)-(2→3)-O-(β-D̿ -galactopyranosyl)-(1→4)-β-D̿ -glucopyranoside], the Kd was 31.2 µM.
